From ChEMBL document CHEMBL5291721, “A preclinical secondary pharmacology resource illuminates target-adverse drug reaction associations of marketed drugs” (Nat Commun, 2023)

Experiments:
[1] = target: T1, Muscarinic acetylcholine receptor M4 (Homo sapiens, UniProt P08173)
T1 sequence (P08173 whole entry): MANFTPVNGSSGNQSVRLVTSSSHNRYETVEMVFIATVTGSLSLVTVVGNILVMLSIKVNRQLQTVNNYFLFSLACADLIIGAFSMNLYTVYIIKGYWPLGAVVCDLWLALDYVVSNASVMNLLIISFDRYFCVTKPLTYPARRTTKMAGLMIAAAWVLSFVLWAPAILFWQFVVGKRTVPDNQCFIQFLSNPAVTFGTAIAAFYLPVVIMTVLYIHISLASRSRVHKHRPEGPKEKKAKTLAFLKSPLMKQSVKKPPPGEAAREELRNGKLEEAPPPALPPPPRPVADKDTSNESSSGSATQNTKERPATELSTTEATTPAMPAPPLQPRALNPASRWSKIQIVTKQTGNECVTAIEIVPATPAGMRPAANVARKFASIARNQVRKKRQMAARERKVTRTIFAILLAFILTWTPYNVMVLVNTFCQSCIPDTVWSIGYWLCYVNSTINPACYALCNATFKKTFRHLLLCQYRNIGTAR

Substance-K receptor = target: T2, Substance-K receptor (Homo sapiens, UniProt P21452)
T2 sequence (P21452 whole entry): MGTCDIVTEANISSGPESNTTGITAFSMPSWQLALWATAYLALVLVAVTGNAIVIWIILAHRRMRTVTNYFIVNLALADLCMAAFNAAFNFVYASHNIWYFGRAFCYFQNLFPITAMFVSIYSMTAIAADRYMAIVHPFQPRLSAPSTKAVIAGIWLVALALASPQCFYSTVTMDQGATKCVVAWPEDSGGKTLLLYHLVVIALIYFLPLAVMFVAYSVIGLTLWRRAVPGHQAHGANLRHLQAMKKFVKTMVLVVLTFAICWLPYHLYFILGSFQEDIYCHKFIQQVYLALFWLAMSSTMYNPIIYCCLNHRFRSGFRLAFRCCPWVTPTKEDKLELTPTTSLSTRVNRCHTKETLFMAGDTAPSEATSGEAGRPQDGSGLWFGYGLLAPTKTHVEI

[2] = target: Hydroxycarboxylic acid receptor 2 (Homo sapiens, UniProt Q8TDS4)
[3] = target: T3, Type-1 angiotensin II receptor (Homo sapiens, UniProt P30556)
T3 sequence (P30556 whole entry): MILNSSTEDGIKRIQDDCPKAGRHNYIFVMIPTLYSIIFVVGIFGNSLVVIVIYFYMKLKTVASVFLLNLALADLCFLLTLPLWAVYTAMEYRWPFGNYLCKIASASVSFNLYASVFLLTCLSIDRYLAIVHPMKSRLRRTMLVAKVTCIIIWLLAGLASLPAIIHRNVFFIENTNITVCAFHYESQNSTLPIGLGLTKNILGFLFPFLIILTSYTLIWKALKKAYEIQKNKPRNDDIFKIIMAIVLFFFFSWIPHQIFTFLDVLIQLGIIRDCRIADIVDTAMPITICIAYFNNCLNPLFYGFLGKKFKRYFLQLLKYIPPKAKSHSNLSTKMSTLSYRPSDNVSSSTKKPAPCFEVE

[4] = target: T4, Type-2 angiotensin II receptor (Homo sapiens, UniProt P50052); assay type: functional
T4 sequence (P50052 whole entry): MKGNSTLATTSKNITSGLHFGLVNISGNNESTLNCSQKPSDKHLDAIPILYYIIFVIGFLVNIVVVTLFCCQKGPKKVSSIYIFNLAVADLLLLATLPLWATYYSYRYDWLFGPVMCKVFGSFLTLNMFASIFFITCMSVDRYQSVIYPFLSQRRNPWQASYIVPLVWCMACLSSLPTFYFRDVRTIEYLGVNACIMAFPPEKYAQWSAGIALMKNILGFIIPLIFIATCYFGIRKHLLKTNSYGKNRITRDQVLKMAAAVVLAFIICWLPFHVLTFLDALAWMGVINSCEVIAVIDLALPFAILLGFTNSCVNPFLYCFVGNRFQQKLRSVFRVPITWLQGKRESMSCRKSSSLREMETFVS

Glucocorticoid receptor = target: T5, Glucocorticoid receptor (Homo sapiens, UniProt P04150); assay type: functional
T5 sequence (P04150 whole entry): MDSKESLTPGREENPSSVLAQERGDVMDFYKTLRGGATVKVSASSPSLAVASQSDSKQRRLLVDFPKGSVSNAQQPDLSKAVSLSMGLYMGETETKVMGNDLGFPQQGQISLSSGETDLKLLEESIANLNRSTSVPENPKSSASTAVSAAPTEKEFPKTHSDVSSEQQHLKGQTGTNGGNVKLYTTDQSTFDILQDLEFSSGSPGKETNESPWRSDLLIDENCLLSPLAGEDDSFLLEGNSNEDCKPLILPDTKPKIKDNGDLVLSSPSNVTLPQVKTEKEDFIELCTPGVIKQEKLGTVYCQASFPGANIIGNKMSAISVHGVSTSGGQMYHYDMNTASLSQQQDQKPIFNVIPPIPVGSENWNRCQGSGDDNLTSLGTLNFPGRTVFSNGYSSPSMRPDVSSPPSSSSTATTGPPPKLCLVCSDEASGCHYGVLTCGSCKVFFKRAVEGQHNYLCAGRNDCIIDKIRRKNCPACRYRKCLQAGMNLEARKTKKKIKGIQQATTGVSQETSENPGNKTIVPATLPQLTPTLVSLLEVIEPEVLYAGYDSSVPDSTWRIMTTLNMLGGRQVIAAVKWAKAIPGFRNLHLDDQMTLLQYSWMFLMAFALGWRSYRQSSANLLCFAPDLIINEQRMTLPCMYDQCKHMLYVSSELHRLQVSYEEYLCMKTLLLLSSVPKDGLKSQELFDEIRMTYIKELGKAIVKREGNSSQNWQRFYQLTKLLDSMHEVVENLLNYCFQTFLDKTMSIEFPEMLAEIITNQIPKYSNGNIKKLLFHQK
Also: assay procedure not described here.

Chain of Hydroxycarboxylic acid receptor 2 (Q8TDS4 whole entry): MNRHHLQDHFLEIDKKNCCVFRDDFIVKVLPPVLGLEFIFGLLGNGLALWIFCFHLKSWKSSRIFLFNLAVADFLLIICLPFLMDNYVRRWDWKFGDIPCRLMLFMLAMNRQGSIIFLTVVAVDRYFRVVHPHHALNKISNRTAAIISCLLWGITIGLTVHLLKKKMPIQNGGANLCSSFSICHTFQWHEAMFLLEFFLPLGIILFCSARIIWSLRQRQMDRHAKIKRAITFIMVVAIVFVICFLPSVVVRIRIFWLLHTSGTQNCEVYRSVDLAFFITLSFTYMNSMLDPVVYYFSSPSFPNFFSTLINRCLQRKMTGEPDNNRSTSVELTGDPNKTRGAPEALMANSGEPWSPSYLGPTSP

## N#Cc1ccc([C@H]2CCc3cncn32)c(F)c1 [OSILODROSTAT]
[1]
  AC50: > 10 µM
Substance-K receptor
  AC50: > 10 µM

## CCCN(CCC)C(=O)C(CCC(=O)O)NC(=O)c1ccccc1 (configuration not stated) [PROGLUMIDE]
[2]
  AC50: > 10 µM

## CCCCc1ncc(/C=C(\Cc2cccs2)C(=O)O)n1Cc1ccc(C(=O)O)cc1 [EPROSARTAN]
[1]
  AC50: > 10 µM
Substance-K receptor
  AC50: > 10 µM
[3]
  AC50: 0.0042 µM
[4]
  AC50: > 100 µM

## C/C(O)=C(\C#N)C(=O)Nc1ccc(C(F)(F)F)cc1 [TERIFLUNOMIDE]
Glucocorticoid receptor
  AC50: > 30 µM

## CC(=O)O[C@H]1CC[C@@]2(C)C(=CC[C@@H]3[C@@H]2CC[C@]2(C)C(c4cccnc4)=CC[C@@H]32)C1 [ABIRATERONE ACETATE]
Glucocorticoid receptor
  AC50: > 30 µM

## CN1C(=O)C(O)N=C(c2ccccc2)c2cc(Cl)ccc21 (configuration not stated) [TEMAZEPAM]
[2]
  AC50: > 10 µM

## CCCc1nc(C(C)(C)O)c(C(=O)OCc2oc(=O)oc2C)n1Cc1ccc(-c2ccccc2-c2nnn[nH]2)cc1 [OLMESARTAN MEDOXOMIL]
[3]
  AC50: 0.0017 µM
[4]
  AC50: 74.3 µM
